Key:
Format in all cases: cell-based
[1] = target: T1, human P2X3 receptor (Homo sapiens (Human), UniProt P56373); test: Evaluation of human P2X3 receptor inhibitory activity (Test Example 1-2, FLIPR 384, 384-well, 150 nM ATP)
How it was run: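 Human P2X3 stably expressed in C6BU-1 cells, Fluo-3-AM loaded, read on FLIPR at pH 7.5 HEPES buffer. Compound added 5 min before 150 nM ATP; peak/baseline fluorescence over 4 min gave inhibition (buffer instead of ATP = 100%), from which IC50 was derived.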

[2] = target: Rat P2X3 receptor (Rattus norvegicus (Rat), UniProt P49654); test: Evaluation of rat P2X3 receptor inhibitory activity in the presence of rat serum albumin (RSA) (Test Example 3-2); settings: rat P2X3 receptor in C6BU-1 cells
Procedure: Rat P2X3 receptor gene (GenBank accession number NM_031075) was expressed in C6BU-1 cell. The C6BU-1 cells were seeded in a 96-well microtiter plate at a concentration of 2500 cells/well and cultured in the medium (7.0% fetal bovine serum, 7.0% horse serum, and 1% antibiotic and antifungal in DMEM) for one day at 37° C. under 5% carbon dioxide atmosphere. The plasmid was transfected into the cells using transfection reagent FuGENEG (Roche). The transfected cells were cultured in the medium for one day at 37° C. under 5% carbon dioxide atmosphere. The medium was replaced with 4 μM Fluo-3-AM solution (pH7.5) containing 20 mM HEPES, […], 5.27 mM KCl, 0.9 mM MgCl2, 1.26 mM CaCl2, 5.6 mM D-glucose, 2.5 mM probenecid, 1% BSA, and 0.08% Pluronic F-127, and incubated at 37° C. under 5% dioxide carbon atmosphere for one hour. The plate was washed with washing buffer (20 mM HEPES, 137 mM NaCl, 5.27 mM KCl, 0.9 mM MgCl2, 1.26 mM CaCl2, 5.6 mM D-glucose, 2.5 mM probenecid, pH7.5), and each well was added with 40 μL of this buffer. The plate was placed in High-Throughput Screening System FDSS 3000 (Hamamatsu Photonics K.K.). Measurement of fluorescence intensity by FDSS 3000 was started, and 40 μL of DMSO solutions containing 1% RSA (final concentrations) and different concentrations of the test compound as prepared by dilution with dilution buffer (20 mM HEPES, 137 mM NaCl, 5.27 mM KCl, 0.9 mM MgCl2, 1.26 mM CaCl2, 5.6 mM D-glucose, 2.5 mM probenecid, 0.1% Pluronic F-127, pH7.5) were dispensed to each well through the built-in automatic dispenser. Five minutes after, 50 nM ATP solution (50 μL) prepared by dilution with the dilution buffer was dispensed through the built-in automatic dispenser, and the measurement of fluorescence intensity was continued for 4 min. For each well, the specific maximum fluorescence intensity was calculated as the ratio of the maximum fluorescence intensity after addition of the ATP solution to the fluorescence intensity at the starting of the measurement. The 50% inhibitory concentration (IC50) was calculated under the assumption that the specific maximum fluorescence intensity without test compound is 0% inhibition and that the specific maximum fluorescence intensity when the dilution buffer was added in place of ATP solution is 100% inhibition, to evaluate the inhibitory activity of the test compound. FDSS software (Hamamatsu Photonics K.K.) was used for calculation of the specific maximum fluorescence intensity. IC50 was calculated using Microsoft Excel (Microsoft Corporation) and XLfit (idbs Ltd.).

[3] = target: T1, human P2X3 receptor; test: Evaluation of human P2X3 receptor inhibitory activity (Test Example 1-1, FDSS 3000, 96-well, 50 nM ATP); settings: human P2X3 receptor in C6BU-1 cells; Test Example 1-1 (compounds I-001 to I-300)
How it was run: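 C6BU-1 cells stably expressing human P2X3, loaded with 4 μM Fluo-3-AM (pH 7.5), preincubated 5 min with compound before 50 nM ATP challenge; fluorescence followed 4 min on FDSS 3000. IC50 derived from peak/baseline fluorescence ratio, no-compound as 0% and buffer-instead-of-ATP as 100% inhibition.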

[4] = human P2X3 receptor in C6BU-1 cells, Test Example 1-2 (compounds I-301 to I-483), read-out: P2X3 IC50

T1 sequence (P56373 whole entry): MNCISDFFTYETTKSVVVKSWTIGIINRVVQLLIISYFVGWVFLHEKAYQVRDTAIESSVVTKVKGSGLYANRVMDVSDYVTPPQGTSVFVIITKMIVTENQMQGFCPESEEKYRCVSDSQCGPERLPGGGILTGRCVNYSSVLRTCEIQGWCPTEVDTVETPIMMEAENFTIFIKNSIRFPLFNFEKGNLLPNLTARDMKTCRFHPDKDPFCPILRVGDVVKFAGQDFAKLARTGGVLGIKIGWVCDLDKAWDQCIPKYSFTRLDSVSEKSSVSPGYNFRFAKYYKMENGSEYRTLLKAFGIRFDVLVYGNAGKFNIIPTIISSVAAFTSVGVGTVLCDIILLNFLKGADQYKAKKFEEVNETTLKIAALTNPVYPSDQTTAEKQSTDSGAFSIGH
Chain of Rat P2X3 receptor (P49654 whole entry): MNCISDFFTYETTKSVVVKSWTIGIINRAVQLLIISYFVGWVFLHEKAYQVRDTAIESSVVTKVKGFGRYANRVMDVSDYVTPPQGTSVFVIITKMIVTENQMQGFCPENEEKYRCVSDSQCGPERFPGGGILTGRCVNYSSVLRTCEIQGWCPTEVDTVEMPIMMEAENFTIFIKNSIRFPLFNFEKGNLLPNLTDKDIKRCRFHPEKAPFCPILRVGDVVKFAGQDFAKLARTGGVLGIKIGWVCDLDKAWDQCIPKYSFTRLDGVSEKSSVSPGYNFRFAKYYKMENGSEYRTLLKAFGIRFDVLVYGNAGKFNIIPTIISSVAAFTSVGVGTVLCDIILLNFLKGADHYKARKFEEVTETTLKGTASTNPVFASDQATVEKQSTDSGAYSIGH

| Compound | IC50 [1, 4] [nM] | IC50 [2] [nM] | IC50 [3] [nM] | IC50 ([1]; C6BU-1 cell transfected with human P2X3 receptor gene, method of Test Example 1-2 (compounds I-301 to I-483), read-out: IC50 (human P2X3 receptor inhibitory activity)) [nM] |
| --- | --- | --- | --- | --- |
| CCC(=O)Nc1c[nH]/c(=N\c2ccc(Oc3ccc(C(N)=O)nn3)cc2)n(Cc2ccc(Cl)cc2)c1=O [Compound I-309] | 9 | 22 | – | – |
| Cc1ccc(Oc2ccc(/N=c3\[nH]cc(NC(=O)[C@H]4C[C@H](O)C4)c(=O)n3Cc3ccc(Cl)cc3)cc2)nn1 [Compound I-308] | 5 | 5 | – | – |
| Cc1ccc(Oc2ccc(Nc3nc(=O)c(C(=O)NC4CCOCC4)cn3Cc3ccc(Cl)cc3)cc2)nn1 [Compound I-159] | – | 23 | 7 | – |
| CCCn1c(=O)cc(Nc2ccc(Oc3cccc(C(=O)O)n3)cc2)n(Cc2ccc(Cl)cc2)c1=O [Compound I-165] | – | 17 | 3 | – |
| Cc1nc(Nc2cc(=O)n([C@@H](C)[C@@H](C)C(=O)O)c(=O)n2Cc2ccc(Cl)cc2)ccc1Oc1ccc(F)nc1 [Compound I-339] | 9 | 12 | – | – |
| N#Cc1cnc(Oc2ccc(Nc3nc(=O)c(C(=O)NC4CCOCC4)cn3Cc3ccc(Cl)cc3)cc2)cn1 [Compound I-230] | – | 10 | 9 | – |
| Cc1noc(-c2c[nH]/c(=N\c3ccc(Oc4cccc(C(=O)O)n4)cc3)n(Cc3ccc(Cl)cc3)c2=O)n1 [Compound I-313] | 5 | 24 | – | – |
| Cc1cc(/N=c2\[nH]cc(NC(=O)C3CCOCC3)c(=O)n2Cc2ccc(Cl)cc2)ccc1Oc1ncccc1F [Compound I-162] | – | 13 | 3 | – |
| O=c1c(NC(=O)[C@H]2C[C@H](O)C2)c[nH]/c(=N\c2ccc(Oc3ccc(F)cn3)cc2)n1Cc1ccc(Cl)cc1 [Compound I-215] | – | 5 | 4 | – |
| O=C(O)c1cc(Oc2ccc(/N=c3\[nH]cc(Nc4ccon4)c(=O)n3Cc3ccc(Cl)cc3)cc2)ccn1 [Compound I-354] | 7 | 14 | – | – |
| CCn1c(=O)[nH]c(Nc2ccc(Oc3cccc(C#N)n3)cc2)c(Cc2ccc(Cl)cc2)c1=O [Compound I-456, 5-(4-chlorobenzyl)-6-[4-(6-cyano-2-pyridyloxy)phenylamino]-3-ethylpyrimidin-2,4(1H,3H)-dione] | 9 | – | – | – |
| O=C(NCC1CC1)c1c[nH]/c(=N\c2ccc(Oc3cccc(F)n3)cc2)n(Cc2ccc(Cl)cc2)c1=O [Compound I-407] | 68 | – | – | – |
| O=C(O)c1cccc(Oc2ccc(Nc3nc4ccccc4n3Cc3ccc(Cl)cc3)cc2)n1 [Compound I-455] | – | – | – | < 30000 |
| COC(=O)[C@H](C)[C@H](C)n1c(=O)cc(Nc2ccc(Oc3ccc(F)cn3)cc2)n(Cc2ccc(Cl)cc2)c1=O [Compound I-323] | 26 | – | – | – |
| Cc1cc(NC(=O)c2cn(Cc3ccc(Cl)cc3)c(Nc3ccc(Oc4cccc(F)n4)cc3)nc2=O)no1 [Compound I-371] | 80 | – | – | – |
| Cc1noc(-c2c[nH]/c(=N\c3ccc(Oc4ccc(C(=O)O)nn4)cc3)n(Cc3ccc(Cl)cc3)c2=O)n1 [Compound I-317] | 13 | – | – | – |
| O=C(O)c1cccc(Oc2ccc(/N=c3\[nH]cc(-c4ccccn4)c(=O)n3Cc3ccc(Cl)cc3)cc2)n1 [Compound I-480] | 7 | – | – | – |
| CCOC(=O)c1cn(Cc2ccc(Cl)cc2)c(Nc2ccc(Oc3ccc(F)cn3)cc2)cc1=O [Compound I-463, 1-(4-chloro-benzyl)-2-[4-(5-fluoro-2-pyridyloxy)phenylamino]-5-(ethoxycarbonyl)pyridin-4(1H)-one] | 26 | – | – | – |
| Cn1ccc(NC(=O)c2cn(Cc3ccc(Cl)cc3)c(Nc3ccc(Oc4cccc(F)n4)cc3)nc2=O)n1 [Compound I-378] | 20 | – | – | – |
| Cc1cc(Oc2ccc(/N=c3\[nH]cc(NC(=O)C4CCOCC4)c(=O)n3Cc3ccc(Cl)cc3)cc2C)no1 [Compound I-304] | 12 | 12 | – | – |
| CCCn1c(=O)cc(Nc2ccc(Oc3cccc(C#N)c3)c(C)n2)n(Cc2ccc(C)cc2)c1=O [Compound I-473] | 29 | – | – | – |
| CNC(=O)c1noc(-c2c[nH]/c(=N\c3ccc(Oc4ccon4)cc3)n(Cc3ccc(Cl)cc3)c2=O)n1 [Compound I-442] | 80 | – | – | – |
| O=C(NC[C@H]1CCCO1)c1cn(Cc2ccc(Cl)cc2)c(Nc2ccc(Oc3cccc(F)n3)cc2)nc1=O [Compound I-387] | 14 | – | – | – |
| Cc1nc(Nc2cc(=O)n(CC(C)(C)C(=O)O)c(=O)n2C[C@H]2CC[C@H](C)CC2)ccc1Oc1ccc(F)cn1 [Compound I-445] | 7 | – | – | – |
| CC(C)c1c[nH]/c(=N\c2ccc(Oc3cccc(C#N)n3)cc2)n(Cc2ccc(Cl)cc2)c1=O [Compound I-321] | 150 | – | – | – |
| CC(C)[C@H](NC(=O)c1cn(Cc2ccc(Cl)cc2)c(Nc2ccc(Oc3cccc(F)n3)cc2)nc1=O)C(N)=O [Compound I-380] | 4 | – | – | – |
